Source: patent US11014942B2, “Preparation of a solid form of gadobenate dimeglumine” (BRACCO IMAGING S.P.A., priority 2014, dated 2021)

Tests used:
[1] = cited from earlier work; for Log P of antisolvent B: Table 1, CRC Handbook, values labelled * from U.S. National Library of Medicine; for log P (octanol/water partition coefficient): values listed in the description, CRC Handbook or US National Library of Medicine tables
[2] = storage stability of the collected solid; assay type: physicochemical; conditions: when properly stored, under inert atmosphere
Excerpt: Moreover, after its isolation, the collected solid product can conveniently be stored for long periods of time, for instance up to 2 years when properly stored, (i.e. under inert atmosphere) in a form that is ready for use in the preparation of the MultiHance® formulation, by simple dissolution of the solid compound in the proper amount of a pharmaceutically acceptable aqueous solution, such as, for instance, the sterile water for injections (WFI) or any another proper aqueous medium, according to procedures commonly employed in the art.

[3] = water dissolution of the solid form; assay type: physicochemical
Excerpt: As formerly discussed, the complex compound collected with the proposed process is endowed with a good stability, favorable workability and, especially, optimal water solubility.

[4] = solubility in solvent A (upper concentration limit); assay type: physicochemical
Excerpt: Higher concentrations (of the gadobenate compound in the solvent A), for instance of at least 10% or, preferably, equal to or higher than 20%, are, however, preferred for the use of the invention, conveniently reducing organic solvent waste.

SMILES	Log P of antisolvent B [1]	log P (octanol/water partition coefficient) [1]	further results
COCC(C)O (stereo not drawn) [1-methoxy-2-propanol]	−0.44	−0.437	–
CCC(C)=O [2-butanone]	–	0.29	–
O=C1CCCCC1 [cyclohexanone]	–	0.81	–
COCCOCCOC [diethylene glycol dimethyl ether]	−0.36*	−0.36	–
O=C([O-])CN(CCN(CC(=O)[O-])CC(=O)[O-])CCN(CC(=O)O)C(COCc1ccccc1)C(=O)O.[Gd+3] (stereo not drawn) [gadobenate dimeglumine, gadolinium complex of the 4-carboxy-5,8,11-tris(carboxymethyl)-1-phenyl-2-oxa-5,8,11-triazatridecan-13-oic acid]	–	–	storage time of the collected solid product [2]: up to 2 years; water required for complete dissolution ([3]; at 25-30° C.): less than 1 mL of water for 1 g of product; time to complete ready dissolution in water ([3]; less than 1 mL of water for 1 g of product at 25-30° C.): less than five minutes; upper concentration limit consistent with solubility in methanol ([4]; solvent A methanol): about 50%; upper concentration limit based on solubility in water or aqueous solvent ([4]; solvent A water or aqueous solvent such as saline solution): about 70%
CC(=O)CC(C)C [methyl isobutyl ketone]	0.56	0.56	–
C1CCOC1 [tetrahydrofurane]	0.46	0.46	–
